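Five compound concentrations were applied to cells in 96-well plates for 48 hours; endpoints were derived by simple linear interpolation of the resulting dose-response curve. GI50 = concentration required for 50% inhibition of growth. TGI is the concentration that stops growth completely.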
Assays:
Test in all cases: NCI-60 cell line screen, 48 h
[1] = system: NCI-H23 lung
[2] = system: NCI-H460 lung
[3] = system: NCI-H522 lung
[4] = system: NCI/ADR-RES ovarian
[5] = system: OVCAR-3 ovarian
[6] = system: OVCAR-4 ovarian
[7] = system: OVCAR-5 ovarian
[8] = system: OVCAR-8 ovarian
[9] = system: PC-3 prostate
[10] = system: RPMI-8226 leukemia
[11] = system: RXF 393 renal
[12] = system: SF-268 CNS
[13] = system: SF-295 CNS
[14] = system: SF-539 CNS
[15] = system: SK-MEL-2 melanoma
[16] = system: SK-MEL-28 melanoma
[17] = system: SK-MEL-5 melanoma
[18] = system: SK-OV-3 ovarian
[19] = system: SN12C renal
[20] = system: SNB-19 CNS
[21] = system: SNB-75 CNS
[22] = system: SR leukemia
[23] = system: SW-620 colon
[24] = system: T-47D breast
[25] = system: TK-10 renal
[26] = system: U251 CNS
[27] = system: UACC-257 melanoma
[28] = system: UACC-62 melanoma
[29] = system: UO-31 renal

Cn1cc(-c2cc(N)n3nc(-c4cn(C)c5ccccc45)cc3n2)c2cc(Cl)ccc21
GI50 [1]: 3.75 µM | TGI [1]: 20.5 µM | GI50 [2]: 2.2 µM | TGI [2]: 4.96 µM | GI50 [3]: 1.6 µM | TGI [3]: 3.48 µM | GI50 [4]: 3.03 µM | TGI [4]: 9.38 µM | GI50 [5]: 11.3 µM | TGI [5]: 28.1 µM | GI50 [6]: 3.28 µM | TGI [6]: 11.3 µM | GI50 [7]: 5.16 µM | TGI [7]: 25.5 µM | GI50 [8]: 2.09 µM | TGI [8]: 4.59 µM | GI50 [9]: 1.93 µM | TGI [9]: 4.91 µM | GI50 [10]: 3.27 µM | TGI [10]: 14.9 µM | GI50 [11]: 1.98 µM | TGI [11]: 4.01 µM | GI50 [12]: 8.07 µM | TGI [12]: 32.7 µM | GI50 [13]: 1.92 µM | TGI [13]: 4.26 µM | GI50 [14]: 1.85 µM | TGI [14]: 3.83 µM | GI50 [15]: 1.84 µM | TGI [15]: 4.1 µM | GI50 [16]: 1.69 µM | TGI [16]: 3.08 µM | GI50 [17]: 3.5 µM | TGI [17]: 13 µM | GI50 [18]: 18 µM | TGI [18]: 48.2 µM | GI50 [19]: 1.77 µM | TGI [19]: 3.33 µM | GI50 [20]: 3.45 µM | TGI [20]: 23.8 µM | GI50 [21]: 10.6 µM | TGI [21]: 26.6 µM | GI50 [22]: 2.03 µM | TGI [22]: 6.77 µM | GI50 [23]: 2.17 µM | TGI [23]: 4.8 µM | GI50 [24]: 10.1 µM | TGI [24]: 33.3 µM | GI50 [25]: 11.7 µM | TGI [25]: 26.6 µM | GI50 [26]: 1.86 µM | TGI [26]: 3.73 µM | GI50 [27]: 2.44 µM | TGI [27]: 7.17 µM | GI50 [28]: 1.64 µM | TGI [28]: 3.16 µM | GI50 [29]: 1.63 µM | TGI [29]: 3.07 µM
